The target of experiment [1] is T1, Gastrin/cholecystokinin type B receptor (Homo sapiens, UniProt P32239).
T1 sequence (P32239 whole entry): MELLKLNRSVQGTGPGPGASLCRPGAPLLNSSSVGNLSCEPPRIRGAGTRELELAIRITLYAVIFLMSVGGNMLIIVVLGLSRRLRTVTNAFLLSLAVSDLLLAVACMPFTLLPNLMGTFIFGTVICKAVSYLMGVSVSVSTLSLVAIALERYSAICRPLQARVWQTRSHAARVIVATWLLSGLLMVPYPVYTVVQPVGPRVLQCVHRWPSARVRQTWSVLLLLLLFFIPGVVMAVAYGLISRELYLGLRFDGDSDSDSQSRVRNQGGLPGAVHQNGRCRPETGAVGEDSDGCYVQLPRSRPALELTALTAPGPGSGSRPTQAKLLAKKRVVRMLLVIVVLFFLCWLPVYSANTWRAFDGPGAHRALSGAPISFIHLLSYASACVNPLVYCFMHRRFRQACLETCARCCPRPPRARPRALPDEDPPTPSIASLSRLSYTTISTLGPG
The settings on record: for Ki: read-out: Log Ki (converted); for pKi: read-out: Ki.
Description: Displacement of [125I]CCK-8S from human CCK2R

Experiment [2] deals with T2, Cholecystokinin receptor type A (Homo sapiens, UniProt P32238).
T2 sequence (P32238 whole entry): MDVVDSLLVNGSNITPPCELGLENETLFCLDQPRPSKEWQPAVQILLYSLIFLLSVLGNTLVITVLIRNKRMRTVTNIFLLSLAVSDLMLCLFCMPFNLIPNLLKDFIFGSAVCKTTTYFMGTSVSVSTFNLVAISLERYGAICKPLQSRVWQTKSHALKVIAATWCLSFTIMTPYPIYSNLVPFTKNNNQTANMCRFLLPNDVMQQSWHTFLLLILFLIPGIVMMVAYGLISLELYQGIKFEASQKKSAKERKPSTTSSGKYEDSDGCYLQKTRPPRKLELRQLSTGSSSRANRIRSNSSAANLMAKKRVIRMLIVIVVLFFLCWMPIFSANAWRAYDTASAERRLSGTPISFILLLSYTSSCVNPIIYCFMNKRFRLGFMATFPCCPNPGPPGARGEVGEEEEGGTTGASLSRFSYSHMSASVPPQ
The settings on record: for pKi: read-out: Ki; for Ki: read-out: Log Ki (converted).
Description: Displacement of [125I]CCK-8S from human CCK1R

pKi: −log10 of the molar value.

Experimental findings from ChEMBL document CHEMBL1137407, “Identification and optimization of anthranilic sulfonamides as novel, selective cholecystokinin-2 receptor antagonists” (J Med Chem, 2006) are described below.

Broadly, the Ki is the dissociation constant of the complex between target and ligand, obtained from inhibition or displacement. Usually pKi stands for the Ki on a negative log10 scale, so that one unit is a factor of ten.

In the case of `O=C(c1ccc(Br)cc1NS(=O)(=O)c1cccc2nsnc12)N1CCOCC1`, the Ki in experiment [1] is 0.126 µM. In addition, in experiment [2], the pKi is less than 5.00.
For `O=C(c1c(Cl)cccc1NS(=O)(=O)c1cccc2nsnc12)N1CCCCC1` the same measures were 1 µM and less than 5.00.
`O=C(c1ccc(Cl)cc1NS(=O)(=O)c1cccc2cccnc12)N1CCCCC1`: the pKi in experiment [1] and in experiment [2] was less than 5.00 in each case.
Consider `O=C(c1ccc(NCc2ccccc2)cc1NS(=O)(=O)c1cccc2nsnc12)N1CCCCC1`, for which the Ki in experiment [1] is 1.26 µM. For the same compound, the pKi in experiment [2] is less than 5.00.
For `Cc1ccc2nsnc2c1S(=O)(=O)Nc1cc(Br)ccc1C(=O)N1CCCCC1` the same measures were 0.1 µM and less than 5.00.
In the case of `O=C(Nc1ccc(C(=O)N2CCCCC2)c(NS(=O)(=O)c2cccc3nsnc23)c1)c1ccccc1`, in experiment [1], the Ki is 7.94 µM.
`O=C(c1ccc(Br)cc1NS(=O)(=O)c1ccc2nsnc2c1)N1CCCCC1`: in experiment [1], the Ki was more than 10 µM. Further, in experiment [2], the pKi was less than 5.00.
For `COc1ccc(C(=O)N2CCCCC2)c(NS(=O)(=O)c2cccc3nsnc23)c1` the same measures were 0.631 µM and less than 5.00.
On the same counts, the results for `O=C(c1ccc(-n2cccc2)cc1NS(=O)(=O)c1cccc2nsnc12)N1CCCCC1` are 0.501 µM and less than 5.00.
On the same counts, the results for `CCc1ccc(C(=O)N2CCCCC2)c(NS(=O)(=O)c2cccc3nsnc23)c1` are 0.251 µM and less than 5.00.
For the compound `O=C(c1ccc(Cl)cc1NS(=O)(=O)c1cccc2nsnc12)N1CCSC1`, the pKi in experiment [2] was less than 5.00.
For the compound `O=C(Nc1ccccc1C(=O)NC(Cc1ccccc1)C(=O)O)c1cc2ccccc2[nH]1` (stereo unspecified), the pKi in experiment [1] was less than 5.00. For the same compound, the Ki in experiment [2] is 0.0316 µM.
`O=C(c1ccc(F)cc1NS(=O)(=O)c1cccc2nsnc12)N1CCOCC1`: the Ki in experiment [1] was 3.98 µM. Also, the pKi in experiment [2] was less than 5.00.
For the compound `O=C(c1ccc(Cl)cc1NS(=O)(=O)c1cccc2nsnc12)N1CCC1`, in experiment [1], the Ki was 1.58 µM. Also, the pKi in experiment [2] is less than 5.00.
On the same counts, the results for `O=C(c1ccc(CS)cc1NS(=O)(=O)c1cccc2nsnc12)N1CCCCC1` are 0.1 µM and less than 5.00.
For the compound `O=C(c1ccc(Br)cc1NS(=O)(=O)c1cccc2nccnc12)N1CCOCC1`, the pKi in experiment [2] is less than 5.00.
Regarding `O=C(Nc1cc(Br)ccc1C(=O)N1CCCCC1)c1cccc2nsnc12`, the pKi in experiment [1] and in experiment [2] was less than 5.00 each time.
With `COc1cc(NS(=O)(=O)c2cccc3nsnc23)c(C(=O)N2CCCCC2)cc1OC`, the Ki in experiment [1] is 2.51 µM. In addition, in experiment [2], the pKi is less than 5.00.
Consider `O=C(c1cccc(Cl)c1NS(=O)(=O)c1cccc2nsnc12)N1CCCCC1`, for which the pKi in experiment [1] and in experiment [2] was less than 5.00 each time.
Turning to `O=C(c1ccc(Br)cc1NS(=O)(=O)c1c(F)ccc2nsnc12)N1CCCCC1`, the Ki in experiment [1] is 0.0398 µM. Besides, in experiment [2], the pKi is less than 5.00.
In the case of `O=C(O)[C@@H]1CCCN1C(=O)c1ccc(Cl)cc1NS(=O)(=O)c1cccc2nsnc12`, the pKi in experiment [1] and in experiment [2] was less than 5.00 each time.
In the case of `O=C(c1ccc(F)cc1NS(=O)(=O)c1cccc2nsnc12)N1CCCCC1`, the Ki in experiment [1] was 1 µM.
Turning to `O=C(c1ccc(Cl)cc1NS(=O)(=O)c1cccc2nccnc12)N1CCOCC1`, in experiment [2], the pKi is less than 5.00.
Consider `O=C(c1ccc(Cl)cc1NS(=O)(=O)c1cccc2nsnc12)N1CCC[C@H]1CN1CCCC1`, for which the pKi in experiment [1] and in experiment [2] was less than 5.00 in each case.
On to `O=C(c1ccc(Cl)c(NS(=O)(=O)c2cccc3nsnc23)c1)N1CCCCC1`, for which the pKi in experiment [1] and in experiment [2] was less than 5.00 each time.
For the compound `O=C(c1ccc(F)cc1NS(=O)(=O)c1cccc2nccnc12)N1CCOCC1`, in experiment [1], the Ki is 3.98 µM. Besides, the pKi in experiment [2] is less than 5.00.
Regarding `CC1CC(C)CN(C(=O)c2ccc(Cl)cc2NS(=O)(=O)c2cccc3nsnc23)C1` (stereo unspecified), in experiment [1], the inhibition constant Ki was 1.26 µM. In experiment [2], the pKi is less than 5.00.
As for `CC(C)c1ccc(C(=O)N2CCCCC2)c(NS(=O)(=O)c2cccc3nsnc23)c1`, the Ki in experiment [1] was 0.316 µM. Besides, in experiment [2], the pKi was less than 5.00.
As for `O=C(c1ccccc1NS(=O)(=O)c1cccc2nsnc12)N1CCOCC1`, the pKi in experiment [1] and in experiment [2] was less than 5.00 each time.
Regarding `CN(c1cc(Br)ccc1C(=O)N1CCCCC1)S(=O)(=O)c1cccc2nsnc12`, the pKi in experiment [1] and in experiment [2] was less than 5.00 throughout.
As for `O=C(c1ccc(Br)cc1NS(=O)(=O)c1cccc2ccccc12)N1CCCCC1`, the negative-log Ki (pKi) in experiment [1] and in experiment [2] was less than 5.00 throughout.
In the case of `CN1CCN(C(=O)c2ccc(Cl)cc2NS(=O)(=O)c2cccc3nsnc23)CC1`, the Ki in experiment [1] is 2.51 µM. Also, in experiment [2], the pKi is less than 5.00.
For `O=C(c1ccc(Cl)cc1NS(=O)(=O)c1cccc2nsnc12)N1CCC(CO)CC1` the same measures were 1.26 µM and less than 5.00.
As to `O=C(c1ccc(OC2CCCC2)cc1NS(=O)(=O)c1cccc2nsnc12)N1CCCCC1`, in experiment [1], the Ki was 0.158 µM. Further, the pKi in experiment [2] is less than 5.00.
Turning to `O=C(O)c1ccc(C(=O)N2CCCCC2)c(NS(=O)(=O)c2cccc3nsnc23)c1`, the pKi in experiment [1] and in experiment [2] was less than 5.00 throughout.
`O=C(c1ccc([N+](=O)[O-])cc1NS(=O)(=O)c1cccc2nsnc12)N1CCCCC1`: the pKi in experiment [2] was less than 5.00.
`CC(=O)Nc1ccc(C(=O)N2CCCCC2)c(NS(=O)(=O)c2cccc3nsnc23)c1`: the pKi in experiment [1] and in experiment [2] was less than 5.00 throughout.
For the compound `O=C(c1ccc(Br)cc1NS(=O)(=O)c1ccc(Br)c2nsnc12)N1CCCCC1`, the Ki in experiment [1] is 0.158 µM. Moreover, the pKi in experiment [2] was less than 5.00.
With `Nc1ccc(C(=O)N2CCCCC2)c(NS(=O)(=O)c2cccc3nsnc23)c1`, the Ki in experiment [1] was 7.94 µM. In addition, the pKi in experiment [2] was less than 5.00.
With `C[C@@H]1COC[C@H](C)N1C(=O)c1ccc(Cl)cc1NS(=O)(=O)c1cccc2nccnc12`, the Ki in experiment [1] was 0.631 µM. Moreover, the pKi in experiment [2] is less than 5.00.
On the same counts, the results for `CN(C)c1ccc(C(=O)N2CCCCC2)c(NS(=O)(=O)c2cccc3nsnc23)c1` are 0.316 µM and less than 5.00.
Regarding `O=C(c1ccc(Cl)cc1NS(=O)(=O)c1cccc2nsnc12)N1CCOCC1`, in experiment [1], the Ki is 0.316 µM. For the same compound, in experiment [2], the pKi is less than 5.00.
Regarding `O=C(c1cc2ccccc2cc1NS(=O)(=O)c1cccc2nsnc12)N1CCCCC1`, the Ki in experiment [1] was 0.126 µM. The pKi in experiment [2] was less than 5.00.
On the same counts, the results for `COc1cc(C(=O)N2CCCCC2)c(NS(=O)(=O)c2cccc3nsnc23)cc1Cl` are 0.501 µM and less than 5.00.
`O=C(N[C@@H](Cc1ccccc1)C(=O)O)c1ccc(Br)cc1NS(=O)(=O)c1cc2ccccc2[nH]1`: in experiment [1], the Ki was 2 µM.
`O=C(c1ccccc1NS(=O)(=O)c1cc2ccccc2[nH]1)N1CCCCC1`: the pKi in experiment [1] was less than 5.00. In addition, in experiment [2], the Ki is 7.94 µM.
As for `C[C@@H]1C=C[C@H](C)N1C(=O)c1ccc(Cl)cc1NS(=O)(=O)c1cccc2nsnc12`, the Ki in experiment [1] was 0.2 µM. For the same compound, the pKi in experiment [2] is less than 5.00.
On to `O=C(c1cc(Br)c(Br)cc1NS(=O)(=O)c1cccc2nsnc12)N1CCCCC1`, for which, in experiment [1], the inhibition constant (Ki) was 0.01 µM. Moreover, in experiment [2], the pKi was less than 5.00.
As to `O=C(c1ccc(Cl)cc1NS(=O)(=O)c1cccc2nsnc12)N1CCC(N2CCCCC2)CC1`, the pKi in experiment [1] and in experiment [2] was less than 5.00 each time.
For `O=C(c1ccc(I)cc1NS(=O)(=O)c1cccc2nsnc12)N1CCOCC1`, the pKi in experiment [2] is less than 5.00.
Regarding `O=C(c1ccc(Cl)cc1NS(=O)(=O)c1cccc2nsnc12)N1CCc2ccccc2C1`, in experiment [1], the Ki is 1 µM. Moreover, the pKi in experiment [2] was less than 5.00.
Take `O=C(c1ccc(Br)cc1NS(=O)(=O)c1cccc2cnccc12)N1CCCCC1`: the pKi in experiment [1] and in experiment [2] was less than 5.00 in each case.
With `O=C(c1ccccc1NS(=O)(=O)c1cccc2nsnc12)N1CCCCC1`, the pKi in experiment [1] is less than 5.00.
As to `O=C(c1ccc(I)cc1NS(=O)(=O)c1cccc2nsnc12)N1CCCCC1`, in experiment [1], the Ki is 0.00501 µM. The pKi in experiment [2] was less than 5.00.
For `O=C(NCc1ccccc1)c1ccc(Cl)cc1NS(=O)(=O)c1cccc2nsnc12` the same measures were 2.51 µM and less than 5.00.
On to `O=C(N[C@@H](Cc1ccccc1)C(=O)O)c1ccccc1NS(=O)(=O)c1cc2ccccc2[nH]1`, for which, in experiment [1], the Ki was 5.01 µM.
On to `O=C(c1ccc(Cl)cc1NS(=O)(=O)c1cccc2nsnc12)N1CCCC1`, for which the Ki in experiment [1] is 0.251 µM. The pKi in experiment [2] was less than 5.00.
For `O=C(c1ccc(C(F)(F)F)cc1NS(=O)(=O)c1cccc2nsnc12)N1CCCCC1` the same measures were 0.0631 µM and less than 5.00.
Regarding `O=C(c1ccc(-c2ccco2)cc1NS(=O)(=O)c1cccc2nsnc12)N1CCCCC1`, the Ki in experiment [1] was 0.126 µM. Also, the pKi in experiment [2] was less than 5.00.
On to `O=C(c1cc(Br)ccc1NS(=O)(=O)c1cccc2nsnc12)N1CCCCC1`, for which the Ki in experiment [1] is 0.794 µM.
Turning to `Cc1cccc(C(=O)N2CCCCC2)c1NS(=O)(=O)c1cccc2nsnc12`, the pKi in experiment [1] and in experiment [2] was less than 5.00 throughout.
